Read-outs that look alike come from different tables or passages of the source. Peptide text beside a SMILES is read from it. * marks the point of attachment. Propanoyl(3-(9AA-2-yl)) = Nc1c2ccccc2nc2ccc(CCC(=O)*)cc12
Legend:
[1] = Fluorescence lifetime by time-correlated single photon counting (Edinburgh Instruments FLS920); assay type: physicochemical; settings: for Lifetime* (ns): Table 3, molecules synthesised; for Lifetime (ns): Table 2, 9-aminoacridine derivatives; for Fluorescence Lifetime (nsecs) in PBS pH 7.4: excited at 405 nm, detection at 450 nm, 10 mM phosphate buffered saline pH 7.4
Protocol: Fluorescence lifetimes were determined by time-correlated single photon counting using an Edinburgh Instruments FLS920 fluorimeter. Samples were excited at 405 nm with detection at 450 nm. Measurements were recorded in 10 mM phosphate buffered saline pH 7.4.
Excitation wavelength 405 nm and emission wavelength 450 nm.

[2] = Fluorescence emission spectra / intensity; assay type: physicochemical; settings: for Relative intensity Ex405 nm, Emmax: relative to 9-aminoacridine = 1; for fluorescence emission intensity compared with N-methyl acridone: excitation at 405 nm, 140 mM NaCl, 10 mM phosphate buffer pH 7.4
Protocol: Fluorescence emission spectra of 10-methyl-9(10H)-thioacridone (N-methyl thioacridone) and 10-methyl-9(10H)-acridone (N-methylacridone) in 140 mM NaCl, 10 mM phosphate buffer pH 7.4 upon excitation at 405 nm, were obtained. The thioacridone concentration is 500 nM and the 10-methyl-9(10H)-acridone (N-methylacridone) concentration is 100 nM.
Fluorescence emission spectra of 9-aminoacridine and 10-methyl-9(10H)-acridone (N-methylacridone) upon excitation at 405 nm. Both compounds at a concentration of 100 nM in 140 mM NaCl, 10 mM phosphate buffer pH 7.4, were obtained.
Fluorescence emission spectrum of (Acridin-9-ylamino)acetic acid ethyl ester at 100 nM concentration in 140 mM NaCl, 10 mM phosphate buffer pH 7.4 upon excitation at 405 nm is shown in FIG. 4.

[3] = Fluorescence emission spectra / intensity; assay type: physicochemical
[4] = target: T1, Caspase-3 recombinant enzyme (Homo sapiens, UniProt P42574); test: Fluorescence lifetime based Caspase-3 cleavage assay of dye-labelled DEVDSW peptide; assay type: biochemical; settings: 1 uM substrate
T1 construct: purchased Calbiochem
T1 sequence (P42574 29-175 limits assumed): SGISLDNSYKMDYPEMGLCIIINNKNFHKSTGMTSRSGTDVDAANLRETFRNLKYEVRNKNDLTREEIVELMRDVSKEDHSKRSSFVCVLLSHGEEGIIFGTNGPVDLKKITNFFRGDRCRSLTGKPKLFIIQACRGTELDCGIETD
T1 sequence (P42574 176-277 limits assumed): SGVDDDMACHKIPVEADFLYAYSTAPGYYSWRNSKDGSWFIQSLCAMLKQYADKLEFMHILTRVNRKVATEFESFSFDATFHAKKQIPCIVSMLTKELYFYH
Protocol: The 9-aminoacridine labelled peptide substrate, AA-DEVDSW (1 uM concentration in […] buffer pH 7.4 containing 10% sucrose, 0.1% CHAPS, 100 mM NaCl, 1 mM EDTA, 10 mM DTT) was employed in a biochemical assay using Caspase-3 recombinant enzyme (50 U and 20 U) at 30° C. The assay mixture was analysed at time intervals using an Edinburgh Instruments Fluorescence Lifetime Plate Reader. […] The data could also be easily viewed as a change in percentage cleavage over time, confirming that the reaction was progressing to completion after 90 minutes when 50 units of caspase 3 was employed (see FIGS. 8 and 9).
• Buffer: 20 mM HEPES buffer pH7.4 containing 10% sucrose, 0.1% CHAPS, 100 mM NaCl, 1 mM EDTA, 10 mM DTT • Substrate solution: 10 uM 3-(9-aminoacridin-2-yl) propionyl-DEVDSW in buffer. • Product solution: 10 uM 3-(9-aminoacridin-2-yl) propionyl-DEVDSK in buffer. • Enzyme solution: 10 U/ul in buffer. Procedure
To the well of a 96-well plate was added buffer (88 ul), substrate solution (10 ul, 1 uM final conc.) and enzyme (2 ul for 20 U). Reactions were performed in triplicate and also at varying enzyme concentrations. The reaction progress was followed at time intervals using an Edinburgh Instruments Fluorescence Lifetime Plate Reader against wells containing product and substrate standards.
The partially quenched 9-aminoacridine-labelled peptide substrate, 3-(9-aminoacridin-2-yl) propionyl-DEVDSW, was employed in a biochemical enzymatic cleavage assay using recombinant Caspase-3 enzyme purchased from Calbiochem. The assay was carried out using 1 uM substrate concentration in 20 mM HEPES buffer pH 7.4 containing 10% sucrose, 0.1% CHAPS, 100 mM NaCl, 1 mM EDTA, 10 mM DTT, in the presence of either 20 or 50 units of enzyme (100 ul final volume). The assay mixture was analysed at time intervals using an Edinburgh Instruments Fluorescence Lifetime Plate Reader. […] The deviation in fluorescence lifetime from that stated above was a consequence of the buffer system.

[5] = 20 mM HEPES buffer pH 7.4, 20 or 50 units of enzyme

CC(C)[C@H](NC(=O)[C@H](CCC(=O)O)NC(=O)[C@H](CC(=O)O)NC(=O)CCc1ccc2nc3ccccc3c(N)c2c1)C(=O)N[C@@H](CC(=O)O)C(=O)N[C@@H](CO)C(=O)N[C@@H](CCCCN)C(=O)O [3-(9-Amino-acridin-2-yl)-propionyl-DEVDSK] ({Propanoyl(3-(9AA-2-yl))}-DEVDSK-OH)
fluorescence lifetime [1]: 17.7 ns
Lifetime* (ns) [1]: 17.7 ns
fluorescence properties (emission spectrum, intensity, lifetime) compared with 9-aminoacridine [2]: comparable emission spectrum and fluorescence intensity to that of 9-aminoacridine

CC(C)[C@H](NC(=O)[C@H](CCC(=O)O)NC(=O)[C@H](CC(=O)O)NC(=O)CCc1ccc2nc3ccccc3c(N)c2c1)C(=O)N[C@@H](CC(=O)O)C(=O)N[C@@H](CO)C(=O)N[C@@H](Cc1c[nH]c2ccccc12)C(=O)O [3-(9-Amino-acridin-2-yl)-propionyl-DEVDSW] ({Propanoyl(3-(9AA-2-yl))}-DEVDSW-OH)
fluorescence intensity quenched by tryptophan ([3]; tryptophan (W) containing labelled peptide versus lysine (K) containing labelled peptide): 75%
fluorescence lifetime of reaction mixture after cleavage [4, 5]: 15.5 ns
fluorescence lifetime of reaction mixture at start of reaction [4, 5]: 8.5 ns
time at which cleavage reaction was progressing to completion ([4]; 50 units of caspase 3 enzyme, 20 mM HEPES buffer pH 7.4): 60 min
fluorescence lifetime [1]: 7.6 ns
Lifetime* (ns) [1]: 7.7 ns

Nc1c2ccccc2nc2ccccc12 [Number 1, 9-aminoacridine, reference compound]
Lifetime (ns) [1]: 15 ns
Fluorescence Lifetime (nsecs) in PBS pH 7.4 [1]: 16.0 nsecs
Relative intensity Ex405 nm, Emmax [2]: 1
fluorescence emission intensity compared with N-methyl acridone [2]: considerably brighter

CC(=O)Nc1ccc2nc3ccc(N)cc3c(N)c2c1 [Number 7]
Lifetime (ns) [1]: multiexponential
Relative intensity Ex405 nm, Emmax [2]: Not fluorescent

CCOC(=O)CNc1c2ccccc2nc2ccccc12 [(Acridin-9-ylamino)acetic acid ethyl ester]
fluorescence lifetime ([1]; Excitation wavelength 405 nm and emission wavelength 450 nm): 14.9 ns

Nc1ccc2nc3ccccc3c(N)c2c1 [Number 6]
fluorescence (in words) ([3]; free amino dye, no acetylation): non-fluorescent
Lifetime (ns) [1]: Not fluorescent
Relative intensity Ex405 nm, Emmax [2]: Not fluorescent

Nc1c2ccccc2nc2ccc(CCC(=O)O)cc12 [3-(9-amino-acridin-2-yl)-propionic acid]
Lifetime* (ns) [1]: 17.0 ns
fluorescence properties (emission spectrum, intensity, lifetime) compared with 9-aminoacridine [2]: comparable to the parent 9-aminoacridine

CC(C)(C)OC(=O)CCc1ccc2nc3ccccc3c(N)c2c1 [3-(9-amino-acridin-2-yl)-propionic acid tert-butyl ester]
Lifetime* (ns) [1]: 16.7 ns
fluorescence properties (emission spectrum, intensity, lifetime) compared with 9-aminoacridine [2]: comparable to the parent 9-aminoacridine

Cn1c2ccccc2c(=S)c2ccccc21 [N-methyl thioacridone, 10-methyl-9(10H)-thioacridone, reference compound]
fluorescence emission intensity compared with N-methyl acridone [2]: considerably less fluorescent

Cn1c2ccccc2c(=O)c2ccccc21 [N-methyl acridone, 10-methyl-9(10H)-acridone, reference compound]
Fluorescence Lifetime (nsecs) in PBS pH 7.4 [1]: 13.9 nsecs

CC(C)(C)OC(=O)/C=C/c1ccc2nc3ccccc3c(N)c2c1 [3-(9-Amino-acridin-2-yl)-acrylic acid tert-butyl ester]
Lifetime* (ns) [1]: 11.2 ns

From US9127164B2, “Fluorescent dyes and uses thereof” (ALMAC SCIENCES (SCOTLAND) LIMITED, priority 2005, dated 2015)
